# Results: publication PMC11765512 (International Journal of Molecular Sciences, 2025)
# pKd: −log10 of the molar value.
# Experiments:
# [1] = target: T1, AH109 (pAD-T+pBD-53) (UniProt P02340+P03070); assay: Y2H growth inhibition (MIC) of control strain AH109 (pAD-T+pBD-53); assay type: cell-based, yeast; conditions: SD/-Leu/-Trp/-His/-Ade dropout medium, 48 h
# T1 construct: expressed in transfected cells; host or cells: yeast reporter strain AH109 carrying pAD-T and pBD-53
# Method: The Chemdiv screening compound library used for HTS assay in this research is a combination of synthetic compounds from Enamine (Kyiv, Ukraine) and Life Chemicals Inc. (Burlington, ON, Canada), which can be purchased from Shanghai Topscience Biotechnology Co., Ltd., China. The compounds were stocked at 10 mg/mL in DMSO and used for the screening assays as described. […] Next, 199 μL of the diluted culture and 1 μL of tested compounds (the final concentration was 50 μg/mL) or DMSO were added into each well. […] The final concentrations of the compounds ranged from 100 μg/mL to 0.78 μg/mL with 2-fold dilutions between concentrations.
# [2] = system: AH109 (pAD-S-RBD+pBD-ACE2) cells; assay: β-gal activity, ONPG assay in Y2H strain; assay type: cell-based, yeast
# Method: The ONPG assay was conducted following the protocol of the β-gal activity quantitative detection kit (GENMED S[…]. USA, Arlington, MA, USA). The principle is based on the chemical reaction that the colorless substrate ONPG can be hydrolyzed by β-gal to generate o-nitrophenol (ONP) with a bright-yellow appearance. Briefly, cells were pelleted in Eppendorf® tubes and resuspended in Z-buffer. Chloroform and 0.2% SDS were added to the cells in the tubes and mixed by briefly vortexing, followed by incubation at 28 °C for 5 min. Next, the ONPG solution was added for further incubation. The reaction was terminated after 10 min for p53-T and after 25 min for all other samples by the addition of chilled Na2CO3. Absorbance was recorded at 420 nm. Results were normalized against the cell density and incubation time using the following formula: U=OD420sample−OD420blank/OD600×t×V
# Here, ‘t’ represents the incubation time duration, measured in min, while ‘V’ denotes the volume of the cell cultures utilized for the assay, expressed in mL. The experiments were repeated three times.
# [3] = system: SARS-CoV-2 pseudovirus entry into HEK-293T-hACE2 cells; assay: microbe, parasite or virus in culture; assay type: cell-based
# [4] = system: Vero cells; assay: CCK-8 cytotoxicity, Vero; assay type: cell-based, African green monkey; conditions: for Survival Rate (%) Vero: 50 μg/mL, 48 h, CCK-8
# Method: (§1) African green monkey kidney cells (Vero), Human Hepatocellular Carcinoma Cells (Huh-7), and Human Embryonic Kidney 293T (HEK-293T) cells were maintained in our laboratory. Cells were cultured in Dulbecco’s Modified Eagle’s Medium (DMEM, Hyclone, Logan, UT, USA) containing 10% fetal bovine serum (FBS, Gibco, Waltham, MA, USA) at 37 °C under 5% CO2 in a humidified environment.
# (§2) The cytotoxicity of compounds against Vero, Huh-7, and HEK-293T cells was detected using the Cell Counting Kit-8. Briefly, the target cells were cultured at a density of 8000 cells per well in a 96-well plate containing DMEM enriched with 10% FBS. The cells were allowed to attach overnight, and the medium was replaced with a fresh serum-free DMEM containing 50 µg/mL of compounds. The cell viability was measured at 48 h post-drug treatment by the addition of the CCK-8 reagent (Biosharp, Hefei, Anhui, China), followed by incubation for 4 h. Finally, the absorbance of the cell culture was measured at 450 nm using a microplate reader (PerkinElmer, Waltham, MA, USA). The background absorbance of the blank media was also measured and subtracted from the sample reading. This experiment was repeated 3 times for each group. The obtained results were normalized to that of the control sample, which represented a cell viability of 100%.
# [5] = system: HEK-293T cells; assay: CCK-8 cytotoxicity, HEK-293T; assay type: cell-based, Human; conditions: for Survival Rate (%) HEK-293T: 50 μg/mL, 48 h, CCK-8
# Method: as §1, §2
# [6] = system: Huh-7 cells; assay: CCK-8 cytotoxicity, Huh-7; assay type: cell-based, Human; conditions: for Survival Rate (%) Huh-7: 50 μg/mL, 48 h, CCK-8
# Method: as §1, §2
# [7] = system: SARS-CoV-2 S-mediated cell–cell fusion (HEK-293T/SARS-CoV-2-S/EGFP with Vero); assay type: cell-based
# [8] = target: SARS-CoV-2 S-RBD (Severe acute respiratory syndrome coronavirus 2, UniProt P0DTC2); assay: biochemical; assay type: binding
# [9] = target: ACE2 (Homo sapiens, UniProt Q9BYF1); assay: SPR binding to immobilised ACE2
# ACE2, sequence (Q9BYF1 18-805): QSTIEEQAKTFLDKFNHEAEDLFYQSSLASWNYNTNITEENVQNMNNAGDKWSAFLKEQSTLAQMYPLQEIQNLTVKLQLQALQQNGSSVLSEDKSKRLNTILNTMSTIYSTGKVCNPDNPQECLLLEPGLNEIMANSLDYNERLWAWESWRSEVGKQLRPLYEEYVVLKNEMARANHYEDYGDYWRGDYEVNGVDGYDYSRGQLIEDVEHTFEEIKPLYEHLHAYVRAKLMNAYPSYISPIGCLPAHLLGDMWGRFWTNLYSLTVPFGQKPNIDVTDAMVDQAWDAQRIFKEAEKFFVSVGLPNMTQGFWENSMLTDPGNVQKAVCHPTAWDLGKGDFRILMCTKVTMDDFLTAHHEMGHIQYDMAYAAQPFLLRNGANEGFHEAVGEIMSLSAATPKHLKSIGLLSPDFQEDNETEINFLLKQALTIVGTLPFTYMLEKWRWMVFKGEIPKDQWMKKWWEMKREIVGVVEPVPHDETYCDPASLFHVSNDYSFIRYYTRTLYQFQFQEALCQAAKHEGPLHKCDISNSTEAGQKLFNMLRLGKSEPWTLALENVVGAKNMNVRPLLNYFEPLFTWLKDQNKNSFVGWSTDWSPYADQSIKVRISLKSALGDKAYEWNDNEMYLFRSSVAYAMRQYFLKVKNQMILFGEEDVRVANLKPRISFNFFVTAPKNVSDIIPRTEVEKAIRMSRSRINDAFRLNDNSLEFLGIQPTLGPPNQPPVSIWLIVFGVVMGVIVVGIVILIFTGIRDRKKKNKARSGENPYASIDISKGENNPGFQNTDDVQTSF
# [10] = target: ACE2-S-RBD interaction (Severe acute respiratory syndrome coronavirus 2, UniProt P0DTC2); assay type: binding, SARS-CoV-2
# [11] = target: S-RBD+ACE2 complex (Severe acute respiratory syndrome coronavirus 2, UniProt P0DTC2); set-up: species or system SARS-CoV-2
# [12] = Severe acute respiratory syndrome-related coronavirus, 18 h, read-out: Inhibition rate of pseudovirus entry
# T1 sequence (P03070 87-708 limits assumed): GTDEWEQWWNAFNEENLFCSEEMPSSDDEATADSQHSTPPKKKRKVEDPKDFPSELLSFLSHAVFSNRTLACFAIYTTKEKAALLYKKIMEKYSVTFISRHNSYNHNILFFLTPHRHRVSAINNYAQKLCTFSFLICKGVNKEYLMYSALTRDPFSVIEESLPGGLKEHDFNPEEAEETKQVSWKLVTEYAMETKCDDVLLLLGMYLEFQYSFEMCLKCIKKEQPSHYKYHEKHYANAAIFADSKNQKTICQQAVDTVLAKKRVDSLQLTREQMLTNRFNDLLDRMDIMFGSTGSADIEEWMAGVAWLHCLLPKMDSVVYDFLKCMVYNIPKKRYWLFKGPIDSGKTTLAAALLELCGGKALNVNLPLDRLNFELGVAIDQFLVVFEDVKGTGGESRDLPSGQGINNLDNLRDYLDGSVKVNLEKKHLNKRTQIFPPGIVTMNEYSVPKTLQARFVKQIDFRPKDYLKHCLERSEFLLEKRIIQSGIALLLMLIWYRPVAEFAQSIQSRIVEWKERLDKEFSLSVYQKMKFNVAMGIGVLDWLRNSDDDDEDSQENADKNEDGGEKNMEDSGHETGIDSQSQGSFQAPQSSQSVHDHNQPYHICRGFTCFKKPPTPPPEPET
# T1 sequence (P02340 72-390 limits assumed): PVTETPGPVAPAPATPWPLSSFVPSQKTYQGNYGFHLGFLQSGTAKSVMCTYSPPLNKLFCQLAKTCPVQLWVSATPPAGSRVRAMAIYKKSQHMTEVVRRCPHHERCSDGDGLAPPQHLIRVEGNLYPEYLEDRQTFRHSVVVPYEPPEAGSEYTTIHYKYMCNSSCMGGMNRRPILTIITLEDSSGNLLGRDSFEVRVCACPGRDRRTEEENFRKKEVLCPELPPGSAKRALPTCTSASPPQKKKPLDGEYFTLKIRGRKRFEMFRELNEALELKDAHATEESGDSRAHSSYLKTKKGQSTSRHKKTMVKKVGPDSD
compound,measurement,setting,value
Cc1ccc(N(Sc2ccc(Cl)cc2)C2C=CS(=O)(=O)C2)cc1 (stereo not shown) [IMB-4A],MIC against AH109 (pAD-T+pBD-53),[1],12.5 μg/mL
same,Concentration showing clear inhibition of β-gal activity,[2],6.25 µg/mL
same,Inhibition of pseudovirus entry (in words),[3],could not be observed
same,Survival Rate (%) Vero,[4],71%
same,Survival Rate (%) HEK-293T,[5],18%
same,Survival Rate (%) Huh-7,[6],25%
O=C(c1ccc(N2CCCCS2(=O)=O)cc1)N1CCN(C(=O)c2ccco2)CC1 [IMB-1C],MIC against AH109 (pAD-T+pBD-53),[1],3.125 μg/mL
same,Concentration showing clear inhibition of β-gal activity,[2],0.39 µg/mL
same,Inhibition of pseudovirus entry (in words),[3],concentration-dependent inhibition
same,inhibition at 10 µg/mL,[3]; [12],42.5%
same,inhibition at 20 µg/mL,[3]; [12],68.1%
same,Survival Rate (%) Vero,[4],105%
same,Effect on cell proliferation of Vero,[4]; up to 50 µg/mL for 48 h,did not affect
same,Survival Rate (%) HEK-293T,[5],88%
same,Effect on cell proliferation of HEK-293T,[5]; up to 50 µg/mL for 48 h,did not affect
same,Survival Rate (%) Huh-7,[6],122%
same,Effect on cell proliferation of Huh-7,[6]; up to 50 µg/mL for 48 h,did not affect
same,Syncytium formation,[7],somewhat blocked in a dose-dependent manner
same,pKd,[8],5.97
same,pKd,[9],5.95
same,SPR signal of ACE2 binding to S-RBD,[10],the signal value decreased
same,Decrease of β-fold content,[11],9.46%
same,Increase of α-helix content,[11],6.85%
same,Secondary Structure Content (%) Random,[11],32.93%
same,Secondary Structure Content (%) α-Helix,[11],13.12%
same,Secondary Structure Content (%) β-Fold,[11],42.07%
same,Secondary Structure Content (%) β-Turn,[11],15.97%
"CC(C)CCC[C@@H](C)[C@H]1CC[C@H]2[C@@H]3CC[C@H]4C[C@@H](O[C@@H]5O[C@H](COS(=O)(=O)O)[C@@H](O[C@H]6O[C@H](COS(=O)(=O)O)[C@@H](O[C@H]7O[C@H](COS(=O)(=O)O)[C@@H](O[C@H]8O[C@H](COS(=O)(=O)O)[C@@H](OS(=O)(=O)O)[C@H](OS(=O)(=O)O)[C@H]8OS(=O)(=O)O)[C@H](OS(=O)(=O)O)[C@H]7OS(=O)(=O)O)[C@H](OS(=O)(=O)O)[C@H]6OS(=O)(=O)O)[C@H](OS(=O)(=O)O)[C@H]5OS(=O)(=O)O)CC[C@]4(C)[C@H]3CC[C@]12C [Pixatimod, reference compound]",MIC against AH109 (pAD-T+pBD-53),[1],6.25 μg/mL
